Assays:
[1] = Mass loss of fixed aortic wall after elastase digestion; set-up: species or system Porcine; conditions: for % Mass Loss: porcine aortic wall fixed 7 days, 8.5 Units pancreatic elastase, 2 days, 37° C.; for increase in resistance to elastase of aorta: versus fresh aortic wall (60% mass loss in 2 days)
Procedure: Porcine aorta fragments were collected from a local slaughterhouse and placed in ice-cold saline. The aorta fragments were fixed separately with GA, TA, and a combination of GA and TA as described below. Following fixation, the samples were treated with high concentrations of elastase to test resistance to enzymatic degradation.
(§1) Porcine aortic conduits were fixed for 7 days at room temperature in either:
0.6% GA in 50 mM Hepes buffered saline at pH 7.4 (GA);
0.3% TA in 50 mM Hepes buffered saline at pH 7.4 (TA); or
A mixture of 0.6% GA and 0.3% TA in 50 mM Hepes buffered saline at pH 7.4 (GA & TA).
After fixation, tissues were washed in normal saline followed by ddH2O and fragments of 4×4 mm were dissected and lyophilized. Tissue fragments from each group were weighed and incubated for 2 days (about 48 hours) at 37° C. with 8.5 Units of pancreatic elastase in elastase buffer (50 mM Tris, 1 mM CaCl2, 0.02% NaN3, pH 7.8). As positive controls, fresh, untreated tissues exposed to elastase solution were used. Tissue fragments were thoroughly rinsed in ddH2O, lyophilized and weighed. Mass loss due to enzyme digestion was calculated from the difference between tissue weight before and after incubation in elastase. Lower values of Mass Loss, set forth in Table 2 and FIG. 3, are indicative of better tissue preservation and improved putative protection of elastin from enzymatic degradation.

[2] = Calcification of fixed aorta after subdermal implantation in juvenile rats; format: in vivo, Sprague-Dawley rats; conditions: porcine aorta, subdermal implant in juvenile rats, +/− SEM, n = 10
Procedure: Porcine aorta fragments were collected from a local slaughterhouse and placed in ice-cold saline. The aorta fragments were fixed with GA and separately with a combination of GA and TA as described below. Following fixation, samples were implanted subdermally in juvenile rats to test for calcification potential.
as §1
0.6% GA in 50 mM Hepes buffered saline at pH 7.4 (GA); or
a mixture of 0.6% GA and 0.3% TA in 50 mM Hepes buffered saline at pH 7.4 (GA & TA).
After fixation, tissues were washed in normal saline and fragments of 4×4 mm were tested for calcification by subdermal implantation in juvenile rats (the process used is described in detail by Bailey M, Xiao H, Ogle M, Vyavahare N., ‘Aluminum chloride pretreatment of elastin inhibits elastolysis by matrix metalloproteinases and leads to inhibition of elastin-oriented calcification,’ The American Journal of Pathology, 2001;159(6):1981-6, which is herein incorporated by reference). […]
At 7 and 21 days after implantation, rats were humanely euthanized, tissue samples explanted from their subdermal pouches, dried and analyzed for calcium content using atomic absorbtion spectrophotometry (as outlined in publication above). […]

[3] = Thermal denaturation temperature (Td) of fixed pericardium by DSC; format: physicochemical, bovine; conditions: for Td after 24 hours / Td after 44 hours: bovine pericardium, +/− SEM, n = 6; for Td after 24 hours: fixation 24 hours; for Td after 44 hours: fixation 44 hours
Procedure: Collagen rich tissue was used as a model to test the possible interference of TA with GA-mediated fixation. Samples of bovine pericardium (tissue including about 85% collagen and 5-10% elastin) was fixed at room temperature in one of either: 1% TA in phosphate buffered saline at pH 7.4 for 24 and 44 hours (TA); 0.5% GA in phosphate buffered saline at pH 7.4 for 24 and 44 hours (GA); 0.5% GA in phosphate buffered saline at pH 7.4 for 60 minutes followed by 1% TA in phosphate buffered saline at pH 7.4 for 24 and 44 hours (GA/TA); or 1% TA in phosphate buffered saline at pH 7.4 for 60 minutes followed by 0.5% GA in phosphate buffered saline at pH 7.4 for 24 and 44 hours (TA/GA). After fixation, tissues were washed in normal saline and the extent of cross-linking was evaluated by analysis of the thermal denaturation temperature (Td). Td reflects that the temperature at which native collagen molecules unravel (around 65° C.) is increased in chemically cross-linked tissues. […]. In the case of connective tissues, Td represents the temperature at which native collagen molecules unravel. This process leads to protein denaturation and is recorded as a peak maximum (FIG. 1). […] Tissues (native, GA fixed, TA fixed, and GA/TA combination fixed, as described above) were rinsed in saline and 2 mm^2 samples were cut and hermetically sealed in Differential Scanning Calorimetry (DSC) aluminum pans. Samples were heated at a rate of 10° C./min, from 25° C. to 110° C. and the temperature of thermal denaturation (Td) for each sample was recorded on a Perkin Elmer DSC 7 machine.

pure elastin = experiment: Degradation of orcein-labeled pure elastin by elastase; format: biochemical; conditions: versus buffer control elastin, completely degraded
Procedure: Pure elastin labeled with orcein was used as a substrate for the enzyme elastase. The labeled elastin substrate was used per se, as well as labeled elastin fixed separately with glutaraldehyde (GA) and with tannic acid (TA).
Purified insoluble elastin labeled with orcein was treated for 24 hours at room temperature with one of:
0.6% GA in 50 mM Hepes buffered saline at pH 7.4 (GA-fixed elastin);
0.3% TA in 50 mM Hepes buffered saline at pH 7.4 (TA-fixed elastin); or
50 mM Hepes buffered saline at pH 7.4 (Buffer control).
Elastin samples were centrifuged at 3000 rpm for 10 minutes at room temperature, rinsed with double distilled (dd)H2O and dialyzed in ddH2O. Treated elastin was suspended in elastase buffer (50 mM Tris, 1 mM CaCl2, 0.02% NaN3, pH 7.8) at a concentration of 20 mg/ml. A blank of labeled elastin incubated in the absence of elastase was also prepared for comparison.
Pure pancreatic elastase was prepared at a concentration of 1 Unit/ml in elastase buffer (described above), mixed with treated elastin samples in a 1 to 1 ratio and incubated at 37° C. for 3 days. Samples were centrifuged and elastin degradation was assessed by measuring the presence of soluble orcein-labeled elastin peptides in supernatants, by measuring optical density at 570 nm.

% Mass Loss [1] [%]	Td after 24 hours [3]	Td after 44 hours [3]	Td ([3]; pericardium, DSC 10° C./min, FIG. 1, fresh around 65° C.) [°C]	reduction of elastin degradation by elastase (pure elastin) [%]	SMILES	increase in resistance to elastase of aorta [1]	Calcium content after 7 days ([2]; 7 days)	Calcium content after 21 days ([2]; 21 days)
39.33	84.5 +/− 0.7 °C	85.1 +/− 1.1 °C	87	6.7	O=CCCCC=O [GA, glutaraldehyde]	about 20%	15.31 +/− 1.54 μg Ca/mg dry	42.18 +/− 2.21 μg Ca/mg dry
41.56	68.4 +/− 1.4 °C	72.6 +/− 0.9 °C	–	–	O=C(OC[C@H]1O[C@@H](OC(=O)c2cc(O)c(O)c(OC(=O)c3cc(O)c(O)c(O)c3)c2)[C@H](OC(=O)c2cc(O)c(O)c(OC(=O)c3cc(O)c(O)c(O)c3)c2)[C@@H](OC(=O)c2cc(O)c(O)c(OC(=O)c3cc(O)c(O)c(O)c3)c2)[C@@H]1OC(=O)c1cc(O)c(O)c(OC(=O)c2cc(O)c(O)c(O)c2)c1)c1cc(O)c(O)c(OC(=O)c2cc(O)c(O)c(O)c2)c1 [TA, tannic acid]	about 20%	–	–

Reference: patent US20040153145A1, “Fixation method for bioprostheses” (Clemson University, priority 2002, published 2004)
